The values that follow come from ChEMBL document CHEMBL1201862, “PubChem BioAssay data set” (2004).

The structures appear in SMILES notation. Calls of active or inactive are those of the source. Bounds are passed on as bounds.

In the first experiment the target is Paired box protein Pax-8 (Homo sapiens, UniProt Q06710). In words: inhibitors of PAX8-driven TPO luciferase reporter, dose response, RMG-I cells, cherry-pick (AID 687027).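 Further: luciferase reporter driven by Pax8 target thyroperoxidase promoter measured by SteadyGlo luminescence.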 In kind it is functional, cell-based.
Chain of Paired box protein Pax-8 (Q06710 whole entry): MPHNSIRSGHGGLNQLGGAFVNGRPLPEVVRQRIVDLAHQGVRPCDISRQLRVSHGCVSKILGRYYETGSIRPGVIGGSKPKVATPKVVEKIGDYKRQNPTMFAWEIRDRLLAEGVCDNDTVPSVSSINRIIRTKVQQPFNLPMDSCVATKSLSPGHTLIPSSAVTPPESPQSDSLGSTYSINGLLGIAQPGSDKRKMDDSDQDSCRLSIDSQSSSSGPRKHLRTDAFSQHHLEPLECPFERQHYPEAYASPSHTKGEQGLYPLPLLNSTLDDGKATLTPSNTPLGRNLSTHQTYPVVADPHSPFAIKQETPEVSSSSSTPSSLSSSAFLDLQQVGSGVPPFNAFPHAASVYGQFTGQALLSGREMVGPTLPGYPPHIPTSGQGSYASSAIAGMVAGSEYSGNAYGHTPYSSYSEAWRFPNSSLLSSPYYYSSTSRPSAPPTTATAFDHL
Conditions: not given
Background: A reporter such as luciferase makes a cellular process visible.
As to `C[C@@H]1CCCCO[C@@H](CN(C)Cc2ccc(Cl)c(Cl)c2)[C@H](C)CN([C@H](C)CO)C(=O)c2cc(NS(=O)(=O)c3ccc(F)cc3)ccc2O1`, the AC50 was 8.2 µM (active).

As to `C[C@@H]1CN([C@H](C)CO)C(=O)c2cc(NC(=O)Nc3ccccc3)ccc2O[C@@H](C)CCCCO[C@H]1CN(C)C(=O)Nc1ccc(C(F)(F)F)cc1`, the AC50 is 10.8 µM (active).

On to `C[C@H](CO)N1C[C@H](C)[C@H](CN(C)S(=O)(=O)c2ccc(F)cc2)OCCCC[C@H](C)Oc2ccc(NC(=O)Nc3ccc(F)cc3)cc2C1=O`, for which the half-maximal activity concentration (AC50) is 7.09 µM (active).

As to `C[C@@H]1CN([C@H](C)CO)C(=O)c2cc(NC(=O)Nc3ccccc3)ccc2O[C@@H](C)CCCCO[C@@H]1CN(C)CC1CCCCC1`, the concentration at half-maximal activity (AC50) is 5.42 µM (active).

For another experiment, the target named is Voltage-dependent T-type calcium channel subunit alpha-1H (Homo sapiens, UniProt O95180).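 Further: channel activity triggered by adding a high calcium stimulation buffer.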
Chain of Voltage-dependent T-type calcium channel subunit alpha-1H (O95180 whole entry): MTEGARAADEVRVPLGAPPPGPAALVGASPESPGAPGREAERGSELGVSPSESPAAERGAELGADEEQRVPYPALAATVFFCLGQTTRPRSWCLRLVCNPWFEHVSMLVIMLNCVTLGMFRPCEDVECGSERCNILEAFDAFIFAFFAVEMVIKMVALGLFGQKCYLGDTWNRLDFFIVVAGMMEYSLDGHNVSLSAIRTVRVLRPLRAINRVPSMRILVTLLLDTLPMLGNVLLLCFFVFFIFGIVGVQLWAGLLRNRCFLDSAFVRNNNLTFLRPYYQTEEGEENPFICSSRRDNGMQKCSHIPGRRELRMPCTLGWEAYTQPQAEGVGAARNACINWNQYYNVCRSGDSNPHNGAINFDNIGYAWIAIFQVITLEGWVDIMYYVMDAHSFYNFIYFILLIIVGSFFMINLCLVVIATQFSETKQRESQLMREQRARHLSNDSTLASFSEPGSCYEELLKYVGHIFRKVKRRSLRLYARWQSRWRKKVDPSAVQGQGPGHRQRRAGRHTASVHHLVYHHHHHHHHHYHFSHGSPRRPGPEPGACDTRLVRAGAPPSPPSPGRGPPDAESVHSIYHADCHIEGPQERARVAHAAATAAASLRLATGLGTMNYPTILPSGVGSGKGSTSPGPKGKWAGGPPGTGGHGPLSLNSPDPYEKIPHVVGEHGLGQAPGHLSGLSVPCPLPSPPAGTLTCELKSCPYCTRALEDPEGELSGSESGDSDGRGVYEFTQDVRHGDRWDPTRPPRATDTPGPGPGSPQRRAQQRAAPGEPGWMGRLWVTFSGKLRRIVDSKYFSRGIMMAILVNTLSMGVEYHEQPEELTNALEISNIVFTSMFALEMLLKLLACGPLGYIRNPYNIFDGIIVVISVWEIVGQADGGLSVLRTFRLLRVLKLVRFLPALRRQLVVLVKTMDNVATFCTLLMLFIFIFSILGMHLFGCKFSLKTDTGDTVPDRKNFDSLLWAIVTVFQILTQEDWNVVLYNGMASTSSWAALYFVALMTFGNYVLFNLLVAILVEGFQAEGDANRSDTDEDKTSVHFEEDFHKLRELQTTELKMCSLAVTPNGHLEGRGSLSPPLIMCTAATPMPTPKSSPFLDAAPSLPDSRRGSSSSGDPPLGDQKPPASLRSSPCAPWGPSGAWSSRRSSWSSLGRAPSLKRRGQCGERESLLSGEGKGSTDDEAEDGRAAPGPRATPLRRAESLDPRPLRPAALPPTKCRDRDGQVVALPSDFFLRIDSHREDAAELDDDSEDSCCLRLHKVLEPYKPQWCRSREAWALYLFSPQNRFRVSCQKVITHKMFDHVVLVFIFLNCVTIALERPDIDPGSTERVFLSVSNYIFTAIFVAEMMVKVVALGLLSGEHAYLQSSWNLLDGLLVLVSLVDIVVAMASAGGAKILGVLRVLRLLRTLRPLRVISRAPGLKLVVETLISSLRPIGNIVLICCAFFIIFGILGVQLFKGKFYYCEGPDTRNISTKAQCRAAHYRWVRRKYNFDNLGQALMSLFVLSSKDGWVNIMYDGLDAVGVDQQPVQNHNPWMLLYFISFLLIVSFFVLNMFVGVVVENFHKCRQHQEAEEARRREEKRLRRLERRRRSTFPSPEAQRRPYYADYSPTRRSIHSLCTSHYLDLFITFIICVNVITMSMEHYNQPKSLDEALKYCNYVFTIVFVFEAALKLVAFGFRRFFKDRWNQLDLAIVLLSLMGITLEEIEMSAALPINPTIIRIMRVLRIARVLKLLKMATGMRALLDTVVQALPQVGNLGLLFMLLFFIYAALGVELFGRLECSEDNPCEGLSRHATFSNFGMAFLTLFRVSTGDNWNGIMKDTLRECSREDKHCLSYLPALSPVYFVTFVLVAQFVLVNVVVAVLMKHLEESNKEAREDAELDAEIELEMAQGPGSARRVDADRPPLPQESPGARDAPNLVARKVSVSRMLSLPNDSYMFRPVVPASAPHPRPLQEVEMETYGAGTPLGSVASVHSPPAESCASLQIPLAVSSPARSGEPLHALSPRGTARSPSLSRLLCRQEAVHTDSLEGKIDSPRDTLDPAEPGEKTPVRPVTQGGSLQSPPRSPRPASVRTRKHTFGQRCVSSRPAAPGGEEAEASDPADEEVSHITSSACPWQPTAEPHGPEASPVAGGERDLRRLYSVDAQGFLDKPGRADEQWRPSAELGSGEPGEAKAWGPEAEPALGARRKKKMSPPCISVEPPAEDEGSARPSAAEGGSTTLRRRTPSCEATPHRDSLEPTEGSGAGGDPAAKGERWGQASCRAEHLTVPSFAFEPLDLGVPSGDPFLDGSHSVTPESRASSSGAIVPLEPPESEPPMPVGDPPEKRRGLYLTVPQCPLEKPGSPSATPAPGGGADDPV
Test: not given
The format is functional.
Conditions: not given
Take `O=S(=O)(Nc1nc2ccccc2nc1Nc1ccc2c(c1)OCCO2)c1cccs1`: the half-maximal effective concentration (EC50) was 9.65 µM (active).

For `Cc1ccc(-c2nc(C[S+]([O-])CC(=O)NCc3ccc(Cl)cc3)c(C)o2)cc1` (stereo unspecified), the concentration for a half-maximal effect (EC50) is 2 µM (active).

`Cc1nn(Cc2ccc(Cl)cc2Cl)c(C)c1NC(=O)c1ccc(COc2cc(Cl)ccc2Cl)o1`: the concentration giving a half-maximal response (EC50) was 17.5 µM (active).

For the compound `Cc1nc(CS(=O)(=O)c2ccc(Cl)cc2)cc(Sc2ccccc2Cl)n1`, the EC50 was 4.3 µM (active).

Take `CCn1c(COc2cccc(C)c2)nc2ccccc21`: the EC50 is 13 µM (active).

System in the next experiment: not listed separately
Description: MC4R antagonists, dose response, counter-screen for LGR2 antagonist project, cell-based, plate reader, cherry pick (AID 743444).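 Further: transfected HEK 293 cells stimulated with alpha-MSH peptide; potency of inhibitors of the alpha-MSH evoked signal.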 In kind it is functional.
Conditions: not given
A general note: A counterscreen serves to expose hits that act by an unwanted route or on another target.
For the compound `COc1cc(SC)ccc1C(=O)Nc1ccc(Cl)cn1`, the half-maximal activity concentration (AC50) is 1.45 µM (active).

System in a further experiment: not listed separately
Description: growth suppression of beta-catenin-knockout colon cells, dose response, cell-based, HCT116, human colon tumor (AID 1045).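 Further: HCT116 colon tumor cells with beta catenin knocked out; cells exposed to compound for 60 hours.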 The format is functional.
Conditions: not given
With `Cc1nc(Nc2ccc(Cl)c(Cl)c2)sc1C(=O)Nc1ccccc1`, the EC50 is 21.9 µM (active).

System in another experiment: not listed separately
Description: NIH:OVCAR-3 ovarian cancer cell cytotoxicity, dose response, PAX8 inhibitor project, plate reader, dry powder samples (AID 743044). In kind it is functional, cell-based.
Conditions: not given
Turning to `C[C@@H]1CN([C@H](C)CO)C(=O)c2cc(NC(=O)Nc3ccccc3)ccc2O[C@@H](C)CCCCO[C@H]1CN(C)C(=O)Nc1ccc(C(F)(F)F)cc1`, the AC50 is 46.2 µM (active).

As for `C[C@@H]1CN([C@H](C)CO)C(=O)c2cc(NC(=O)Nc3ccccc3)ccc2O[C@@H](C)CCCCO[C@@H]1CN(C)CC1CCCCC1`, the AC50 was 34.3 µM (active).

System in another experiment: not listed separately
Description: cells. In kind it is functional, cell-based.
Conditions: not given
For `CC(=O)c1cccc(N(C(=O)c2ccccn2)C(C(=O)NC2CCCCC2)c2ccccc2)c1` (stereo unspecified), the EC50 was > 350 µM (not active).

Take `COc1ccc(-c2cn3nc(SCC(=O)NCC4CCCO4)ccc3n2)cc1` (stereo unspecified): the EC50 was 9.41 µM (active).

Turning to `CNNC(=O)C(C)NC(=O)c1ccc(Br)cc1` (stereo unspecified), the EC50 was > 350 µM (not active).

On to `CN(CC(=O)Nc1ccc(F)c(F)c1F)C(=O)/C=C/c1ccc(Cl)cc1`, for which the EC50 is 155 µM (active).

Regarding `O=C(NC(=S)Nc1cccc([N+](=O)[O-])c1)c1ccco1`, the EC50 is reported as > 350 µM (not active).

Consider `COc1ccc(C(=O)NCCCOC(=O)c2ccc(OC)cc2)cc1`, for which the 50% effective concentration (EC50) is on record as > 350 µM (not active).

`O=C(c1ccc(Cl)cc1Cl)N1CCN(c2ccc(N3CCOCC3)nn2)CC1`: the 50% effective concentration (EC50) is > 350 µM (not active).

System in a further experiment: not listed separately
Description: LGR2 antagonists, dose response, cell-based, HEK293, CRE-luciferase reporter, cherry pick, set 2 (AID 743343).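 Further: transfected cells were stimulated with diluted bursicon conditioned medium after compound addition.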 The format is functional.
Conditions: not given
On to `COc1cc(SC)ccc1C(=O)Nc1ccc(Cl)cn1`, for which the half-maximal activity concentration (AC50) is 1.59 µM (active).

System in the next experiment: not listed separately
In words: Luminescence Cell-Based Dose Response HTS to Identify Inhibitors of 5'UTR Stem-Loop Driven Prion Protein mRNA Translation in H4 Neuroglioblastoma Cells. [Related pubchem assays: 1827 (Project Summary), 1813 (Primary HTS)].
Conditions: not given
In kind it is functional.
As to `COc1cc(SC)ccc1C(=O)Nc1ccc(Cl)cn1`, the EC50 was 1.33 µM (active).

The subject of another experiment is INS1. In words: beta cell apoptosis inhibitors, cytokine rescue, dose response, luminescence, retest (AID 449756).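 Further: cell death triggered by IL-1 beta plus TNF-alpha plus IFN-gamma mixture; protective hits raise ATP signal compared with cytokine alone wells.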 In kind it is functional, cell-based. Particulars: Rattus norvegicus.
As to `Cc1nc(Nc2ccc(Cl)c(Cl)c2)sc1C(=O)Nc1ccccc1`, the half-maximal activity concentration (AC50) is 7.01 µM (active).

System in another experiment: not listed separately
Description: growth suppression of PTEN-null colon cells, dose response, cell-based, HCT116 PTEN knockout (AID 1047).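 Further: HCT116 colon tumor cells with PTEN knocked out; cells exposed to compound for 60 hours before readout; potency for loss of cell viability measured by luminescence.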 The format is functional.
Conditions: not given
As to `Cc1nc(Nc2ccc(Cl)c(Cl)c2)sc1C(=O)Nc1ccccc1`, the concentration for a half-maximal effect (EC50) is 19.8 µM (active).

System in a further experiment: not listed separately
Description: cytotoxicity toward NIH3T3 fibroblasts, dose response, counter-screen, cell-based, ATP luminescence, mouse fibroblasts (AID 2010).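 Further: cells exposed to compound for about 90 hours before reading.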 The format is functional.
Conditions: not given
With `Cc1nn(Cc2ccc(Cl)cc2Cl)c(C)c1NC(=O)c1ccc(COc2cc(Cl)ccc2Cl)o1`, the EC50 is reported as > 60 µM (not active).

The next experiment deals with T1, Protein skinhead-1 (Caenorhabditis elegans, UniProt P34707).
T1 sequence (P34707 whole entry): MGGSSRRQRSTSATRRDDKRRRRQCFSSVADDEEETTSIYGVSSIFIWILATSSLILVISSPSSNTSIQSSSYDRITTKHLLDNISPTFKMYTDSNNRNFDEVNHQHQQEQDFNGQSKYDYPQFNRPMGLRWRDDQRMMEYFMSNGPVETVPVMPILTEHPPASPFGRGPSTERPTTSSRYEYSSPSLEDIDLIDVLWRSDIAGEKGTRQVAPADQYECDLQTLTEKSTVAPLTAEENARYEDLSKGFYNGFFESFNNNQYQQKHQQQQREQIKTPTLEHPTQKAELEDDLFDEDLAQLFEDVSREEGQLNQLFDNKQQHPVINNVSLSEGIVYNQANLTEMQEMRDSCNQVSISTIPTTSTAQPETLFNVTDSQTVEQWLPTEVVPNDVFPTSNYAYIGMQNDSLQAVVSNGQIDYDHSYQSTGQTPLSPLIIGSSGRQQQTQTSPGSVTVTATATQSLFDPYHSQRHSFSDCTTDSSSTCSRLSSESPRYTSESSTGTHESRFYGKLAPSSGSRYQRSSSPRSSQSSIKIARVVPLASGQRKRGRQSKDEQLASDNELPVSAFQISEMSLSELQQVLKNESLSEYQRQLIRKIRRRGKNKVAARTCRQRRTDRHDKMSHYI
Test: not given
In kind it is functional.
Conditions: not given
Turning to `COc1cc(SC)ccc1C(=O)Nc1ccc(Cl)cn1`, the IC50 was > 100 µM (inactive).

System in another experiment: not listed separately
Description: cells. The format is functional, cell-based.
Conditions: not given
The source holds these as a separate data set.
Regarding `CC(=O)c1cccc(N(C(=O)c2ccccn2)C(C(=O)NC2CCCCC2)c2ccccc2)c1` (stereo unspecified), the EC50 is recorded as > 350 µM (not active).

In the case of `COc1ccc(-c2cn3nc(SCC(=O)NCC4CCCO4)ccc3n2)cc1` (stereo unspecified), the EC50 was > 350 µM (not active).

Regarding `CNNC(=O)C(C)NC(=O)c1ccc(Br)cc1` (stereo unspecified), the EC50 was > 350 µM (not active).

On to `CN(CC(=O)Nc1ccc(F)c(F)c1F)C(=O)/C=C/c1ccc(Cl)cc1`, for which the EC50 is > 350 µM (not active).

Regarding `O=C(NC(=S)Nc1cccc([N+](=O)[O-])c1)c1ccco1`, the 50% effective concentration (EC50) is > 350 µM (not active).

Consider `COc1ccc(C(=O)NCCCOC(=O)c2ccc(OC)cc2)cc1`, for which the 50% effective concentration (EC50) is recorded as > 350 µM (not active).

On to `O=C(c1ccc(Cl)cc1Cl)N1CCN(c2ccc(N3CCOCC3)nn2)CC1`, for which the 50% effective concentration (EC50) was > 350 µM (not active).

System in another experiment: not listed separately
Description: microbe, parasite or virus in culture. Particulars: Mycobacterium tuberculosis. The format is functional.
As for `Cc1nc(Nc2ccc(Cl)c(Cl)c2)sc1C(=O)Nc1ccccc1`, the CC50 was 27.2 µM (active).

System in a further experiment: not listed separately
In words: inhibitors of SNCA 5'UTR-driven reporter translation, confirmation, H4 neuroglioma cells, luminescence (AID 1988).
Conditions: not given
In kind it is functional, cell-based.
`COc1cc(SC)ccc1C(=O)Nc1ccc(Cl)cn1`: the EC50 is 0.497 µM (active).

System in a further experiment: not listed separately
In words: inhibitors of firefly luciferase expression or activity, dose response, H4 neuroglioma cells, luminescence (AID 1990). The format is functional, cell-based.
Conditions: not given
Take `COc1cc(SC)ccc1C(=O)Nc1ccc(Cl)cn1`: the EC50 was 4.03 µM (inconclusive).

System in another experiment: not listed separately
Description: cytotoxicity in OVCAR8 ovarian cancer cells, dose response, PAX8 project, cell-based, plate reader, dry powder samples (AID 743197). The format is functional. Particulars: OVCAR-8.
With `C[C@@H]1CCCCO[C@@H](CN(C)Cc2ccc(Cl)c(Cl)c2)[C@H](C)CN([C@H](C)CO)C(=O)c2cc(NS(=O)(=O)c3ccc(F)cc3)ccc2O1`, the AC50 is > 70 µM (inactive).

`C[C@@H]1CN([C@H](C)CO)C(=O)c2cc(NC(=O)Nc3ccccc3)ccc2O[C@@H](C)CCCCO[C@H]1CN(C)C(=O)Nc1ccc(C(F)(F)F)cc1`: the AC50 was > 70 µM (inactive).

As to `C[C@H](CO)N1C[C@H](C)[C@H](CN(C)S(=O)(=O)c2ccc(F)cc2)OCCCC[C@H](C)Oc2ccc(NC(=O)Nc3ccc(F)cc3)cc2C1=O`, the AC50 is > 70 µM (inactive).

As for `C[C@@H]1CN([C@H](C)CO)C(=O)c2cc(NC(=O)Nc3ccccc3)ccc2O[C@@H](C)CCCCO[C@@H]1CN(C)CC1CCCCC1`, the AC50 was 53.5 µM (active).

System in a further experiment: not listed separately
In words: inhibitors of intracellular T. cruzi replication, confirmation, NIH3T3 host cells, beta-gal luminescence (AID 2044).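 Further: intracellular parasites grown in NIH/3T3 mouse fibroblasts as host cells; luminescent beta-galactosidase reporter signal from transgenic T. cruzi replicating inside host cells; inhibitors lower the luminescence signal.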 The format is functional, cell-based.
Conditions: not given
Regarding `Cc1nn(Cc2ccc(Cl)cc2Cl)c(C)c1NC(=O)c1ccc(COc2cc(Cl)ccc2Cl)o1`, the EC50 is 1.5 µM (active).

The term AC50 denotes the concentration at which the activity in the assay is half-maximal. Broadly, the EC50 is the concentration that produces a half-maximal response. The term IC50 denotes the concentration that gives 50% inhibition.
